From patent publication US10106853B2, “CUL4B as predictive biomarker for cancer treatment” (CORNELL UNIVERSITY, priority 2012, dated 2018)

Biological target: T1, Top1 (Homo sapiens, UniProt P11387)
T1 construct: CPT-induced TOP1 degradation in breast cancer cell lines; host or cells: human breast cancer cell lines BT474, BT20, MCF-7, MDA-MB-231, T47D, Sk-Br-3 (MCF-10A as control)
T1 sequence (P11387 1-765): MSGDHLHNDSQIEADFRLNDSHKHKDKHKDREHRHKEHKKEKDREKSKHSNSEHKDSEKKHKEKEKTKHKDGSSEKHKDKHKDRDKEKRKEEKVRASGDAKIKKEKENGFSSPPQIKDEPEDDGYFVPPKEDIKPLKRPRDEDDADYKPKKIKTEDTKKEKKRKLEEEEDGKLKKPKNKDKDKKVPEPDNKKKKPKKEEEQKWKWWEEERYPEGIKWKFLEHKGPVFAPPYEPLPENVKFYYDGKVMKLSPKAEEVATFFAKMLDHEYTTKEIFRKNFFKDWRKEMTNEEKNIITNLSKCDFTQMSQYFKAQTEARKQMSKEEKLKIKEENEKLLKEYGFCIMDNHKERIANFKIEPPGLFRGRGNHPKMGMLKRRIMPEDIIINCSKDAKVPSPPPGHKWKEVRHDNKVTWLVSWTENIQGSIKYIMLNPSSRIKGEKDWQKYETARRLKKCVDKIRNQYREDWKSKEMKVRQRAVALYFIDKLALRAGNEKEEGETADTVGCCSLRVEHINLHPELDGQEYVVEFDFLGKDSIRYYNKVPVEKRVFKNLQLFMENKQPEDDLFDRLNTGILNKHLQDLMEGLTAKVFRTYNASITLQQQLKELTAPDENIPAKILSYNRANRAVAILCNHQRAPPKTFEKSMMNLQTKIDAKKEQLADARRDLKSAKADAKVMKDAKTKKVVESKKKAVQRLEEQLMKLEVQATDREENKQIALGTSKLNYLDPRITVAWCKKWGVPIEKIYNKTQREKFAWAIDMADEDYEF
Experiment: CPT-induced TOP1 down regulation assay (immunoblotting)
Type: cell-based
Method: FIG. 1. CPT-induced TOP1 degradation in breast cancer cell lines. A) Expression of endogenous CUL4A and 4B in breast cancer cell lines. Total cell lysates were prepared from the indicated breast cancer cell lines and subjected to SDS PAGE and immunoblotting with antibodies against CUL4A, 4B and α-tubulin. The non-cancerous MCF-10A cell line was used as a control for comparison. B) CPT-induced TOP1 degradation in breast cancer cell lines. Cells were treated with 12.5 μM CPT or 1% DMSO for 4 hours, replenished with CPT-free fresh medium and incubated at 37° C. for 30 minutes to reverse the formation of TOP1 cleavable complex. Cells were then lysed and immunoblotted with the TOP1 and α-tubulin antibodies.
FIG. 2. CUL4B interacted with Top1 and induced Top1 degradation in the presence of CPT. A) Knockdown of CUL4B impaired CPT-induced Top1 degradation. BT474 cells were infected with lentiviral shCUL4B, shCUL4A or control non-targeting shRNA, and selected for stable CUL4B^k/d or CUL4A^k/d cells upon treatment with puromycin. Following treatment with CPT (50 μM) for 1 hour, cells were replenished with CPT-free fresh medium and incubated at 37° C. for 30 minutes. Top1 degradation was assessed by immunoblotting with an anti-Top1 antibody. Levels of α-tubulin were measured as a loading control. B) Association of CUL4B with Top1 following CPT treatment. BT474 cells were treated with proteosome inhibitor MG132 (15 μM) for 3 hours, and were subjected to crosslinking with 0.2 mM Dithiobis[succinimidyl propionate](DSP) for the last 30 min at room temperature. Cell lysates were prepared, and immunoprecipitated with the anti-Top1 or anti-CUL4B antibodies, and then immunoblotted using antibodies against CUL4B or Top1, respectively. IgG immunoprecipitates served as the negative control. C) Knockdown of CUL4B using a second shCUL4B-2 impaired CPT-induced Top1 degradation. BT474 cells were infected with lentiviral shCUL4B-2, shCUL4A-2 or control non-targeting shRNA and selected for stable CUL4B^k/d or CUL4A^k/d cells upon treatment with puromycin. Following treatment with CPT (50 μM) for 1.5 hr, cells were replenished with CPT-free fresh medium and incubated at 37° C. for 30 min. Top1 degradation was assessed by immunoblotting with the anti-Top1 antibody. Levels of α-tubulin were measured as a loading control. D) CUL4B inactivation sensitized BT474 cells to cytotoxic killing by camptothecin. BT474, BT474-CUL4A^k/d or BT474-CUL4B^k/d cells were synchronized with 1 μM nocodazole for 13 hours released in fresh medium, treated with the indicated concentrations of CPT for three days, and subjected to the XTT assay to measure the cytotoxic responses to CPT. […] The bars indicate the S.E. of six independent experiments. Statistical significance in cellular response to CPT between control BT474 cells and CUL4A^k/d or CUL4B^k/d cells were assessed by a two-tailed unpaired student t-test (***: p<0.001). The same results were obtained with a second lentiviral shRNA for CUL4A and CUL4B, as well as in T47D breast cancer cells. E, F) Knockdown of CUL4B increased the sensitivity of T47D cells to camptothecin. […] Statistical significance in cellular response to camptothecin between control cells and CUL4A^k/d or CUL4B^k/d BT474 cells are assessed by student's t-test.
CPT-induced Top1 degradation was monitored by immunoblotting of the alkaline lysates. […]

Compound	Effect of shRNA knockdown on CPT-induced Top1 degradation (BT474 cells, lentiviral shRNA, CPT 50 μM, 1 to 1.5 hr)	CPT-induced Top1 degradation compared to control (shCtrl) (CUL4A knockdown BT474 cells, CPT 50 μM, 1 hour)	CPT-induced Top1 degradation (CUL4B-silenced (CUL4B k/d) BT474 cells, CPT 50 μM, 1 hour)	Top1 degradation following treatment with CPT (breast cancer cells exhibiting elevated levels of CUL4B expression, 12.5 μM CPT, 4 hours)
shCUL4B: lentiviral shRNA CUL4B sequence purchased from Sigma Aldrich, reduces CUL4B expression (CCGGGCAGAATTTAAAGAGGGTAAACTCGAGTTTACCCTCTTTAAATTCTGCTTTTT)	impaired			
CC[C@@]1(O)C(=O)OCc2c1cc1n(c2=O)Cc2cc3ccccc3nc2-1 [CPT, (S)-4-ethyl-4-hydroxy-1H-pyrano[3′,4′:6,7]indolizino[1,2-b]quinoline-3,14-(4H, 12H)-dione]		no effect	abolished	eliminated or markedly destroyed Top1
